For three molecules, melting point results are on record in patent publication US6391872B1, “Indazole bioisostere replacement of catechol in therapeutically active compounds” (Pfizer Inc, priority 1997, dated 2002).

As to `CCc1nn(C2CCCC2)c2cc(C3(C#N)CCC(=O)CC3)ccc12` [Example 6, 1-(1-Cyclopentyl-3-ethyl-1H-indazol-6-yl)-4-oxo-cyclohexanecarbonitrile], the melting point (commonly the temperature, or range, at which the solid turns liquid) is 81 to 89 °C.

In turn, `CCc1nn(-c2ccc(F)cc2)c2cc(Br)ccc12` [Example 24, 6-Bromo-3-ethyl-1-(4-fluorophenyl)-1H-indazole] registered a melting point of 72 to 73 °C.

Take `CCc1nn(-c2ccc(F)cc2)c2cc(C3=CCC(C(=O)O)CC3)ccc12` (stereo not drawn) [Example 28, 4-(3-ethyl-1-(4-fluorophenyl)-1H-indazol-6-yl)-cyclohex-3-ene-carboxylic acid]: the melting point lay within 214 to 216 °C.
